# Experimental data reported in PubChem BioAssay (NCI).
# “And” between values parts separate entries of the source, which are not always exact repeats. Equal values may be shown once.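 Test compounds were applied to cells in 96-well plates for 48 hours at 5 doses. TGI is the concentration that stops growth completely.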
# System: SK-MEL-28 melanoma
# Assay: NCI anticancer screen, dose series, 48 h
row,SMILES,TGI
1,CN1COCc2c1ccc1cc3ccc4c(c3nc21)COCN4S(C)(=O)=O,> 100 µM
2,Oc1cccc(-c2nc3cc(F)ccc3s2)c1,50.3 µM
3,CC(C(O)Cc1ccccc1)N(C)N=Nc1ccc([N+](=O)[O-])cc1 (stereo not given),39.9 µM
4,CC(C)NC(=O)OCCN=c1c2ccccc2ccc2ccccc12,> 100 µM
5,CN(C)CCOC1(Cc2ccc(F)cc2)CCC(C(C)(C)C)CC1 (stereo not given),14.7 µM and 12 µM
6,On1c(-c2ccccc2)nc2ccccc2c1=S,> 100 µM
7,CSc1cnc2ccccc2c1SC1CN(Cc2ccccc2)c2ccccc2C1=O (stereo not given),> 100 µM
8,C=CC[C@]12C=C(OC)[C@@H](O)[C@](OC)(C(c3cc(OC)c4c(c3)OCO4)[C@H]1C)[C@H]2OC(C)=O (stereo not given in full),> 100 µM
9,Cn1c2ccccc2c(=NNc2cccc(C(=O)O)c2)c2ccccc21,35.7 µM

# System: A549 NSCLC
# Assay: NCI anticancer screen, dose series, 48 h
row,SMILES,TGI
1,CCOC(=O)NC(Nc1ccc([N+](=O)[O-])cc1)(C(F)(F)F)C(F)(F)F,> 100 µM
2,C[N+]12CCCCC1C(CN1C(=O)Cc3c4ccccc4c(c4ccccc34)CC1=O)CCC2 (stereo not given),> 100 µM
3,CC(=O)O[C@H]1CC[C@@]2(C)C(=CC[C@H]3[C@@H]4C[C@H](N5CCOCC5)[C@H](OC(C)=O)[C@@]4(C)CC[C@@H]32)C1,> 100 µM
4,CCC1(C)C=Cc2c(cc(O)c3c(=O)c4ccccc4n(C)c23)O1 (stereo not given),> 10 µM
5,O=[N+]([O-])/C(C(Cl)=C(Cl)Cl)=C(\N1CCCCC1)n1cncn1,39.8 µM
6,O=C1c2cccnc2-c2nccc3c2c1nc1cc(Br)ccc13,0.309 µM
7,NC(CCC(=O)NC(CSCC1C(=O)Nc2ccccc21)C(=O)NCC(=O)O)C(=O)O (stereo not given),19.7 µM
8,NNC(=O)CSc1nc2ccccc2c(=O)n1N,> 100 µM
9,CC(=O)NC1c2ccccc2C(C)(C)C12CCC1(CC2)OCCO1 (stereo not given),> 100 µM
10,CC1=NNC(=O)C1C(CC(=O)c1c[nH]c2ccccc12)C(=O)O (stereo not given),> 100 µM
11,CN1COCc2c1ccc1cc3ccc4c(c3nc21)COCN4S(C)(=O)=O,> 100 µM
12,Oc1cccc(-c2nc3cc(F)ccc3s2)c1,88.5 µM
13,CC(C(O)Cc1ccccc1)N(C)N=Nc1ccc([N+](=O)[O-])cc1 (stereo not given),72 µM
14,CC(C)NC(=O)OCCN=c1c2ccccc2ccc2ccccc12,> 100 µM
15,CN(C)CCOC1(Cc2ccc(F)cc2)CCC(C(C)(C)C)CC1 (stereo not given),22 µM and 25.3 µM
16,On1c(-c2ccccc2)nc2ccccc2c1=S,> 100 µM
17,CSc1cnc2ccccc2c1SC1CN(Cc2ccccc2)c2ccccc2C1=O (stereo not given),> 100 µM
18,C=CC[C@]12C=C(OC)[C@@H](O)[C@](OC)(C(c3cc(OC)c4c(c3)OCO4)[C@H]1C)[C@H]2OC(C)=O (stereo not given in full),> 100 µM
19,Cn1c2ccccc2c(=NNc2cccc(C(=O)O)c2)c2ccccc21,27.3 µM

# System: MDA-MB-231 breast
# Assay: NCI anticancer screen, dose series, 48 h
row,SMILES,TGI
1,CCOC(=O)NC(Nc1ccc([N+](=O)[O-])cc1)(C(F)(F)F)C(F)(F)F,> 100 µM
2,C[N+]12CCCCC1C(CN1C(=O)Cc3c4ccccc4c(c4ccccc34)CC1=O)CCC2 (stereo not given),> 100 µM
3,CC(=O)O[C@H]1CC[C@@]2(C)C(=CC[C@H]3[C@@H]4C[C@H](N5CCOCC5)[C@H](OC(C)=O)[C@@]4(C)CC[C@@H]32)C1,> 100 µM
4,CCC1(C)C=Cc2c(cc(O)c3c(=O)c4ccccc4n(C)c23)O1 (stereo not given),> 10 µM
5,O=[N+]([O-])/C(C(Cl)=C(Cl)Cl)=C(\N1CCCCC1)n1cncn1,30.1 µM
6,O=C1c2cccnc2-c2nccc3c2c1nc1cc(Br)ccc13,0.876 µM
7,NC(CCC(=O)NC(CSCC1C(=O)Nc2ccccc21)C(=O)NCC(=O)O)C(=O)O (stereo not given),18.9 µM
8,NNC(=O)CSc1nc2ccccc2c(=O)n1N,61.2 µM
9,CC(=O)NC1c2ccccc2C(C)(C)C12CCC1(CC2)OCCO1 (stereo not given),> 100 µM
10,CC1=NNC(=O)C1C(CC(=O)c1c[nH]c2ccccc12)C(=O)O (stereo not given),> 100 µM
11,CN1COCc2c1ccc1cc3ccc4c(c3nc21)COCN4S(C)(=O)=O,> 100 µM
12,Oc1cccc(-c2nc3cc(F)ccc3s2)c1,51.6 µM
13,CC(C(O)Cc1ccccc1)N(C)N=Nc1ccc([N+](=O)[O-])cc1 (stereo not given),33.7 µM
14,CC(C)NC(=O)OCCN=c1c2ccccc2ccc2ccccc12,> 100 µM
15,CN(C)CCOC1(Cc2ccc(F)cc2)CCC(C(C)(C)C)CC1 (stereo not given),23.8 µM and 22.9 µM
16,On1c(-c2ccccc2)nc2ccccc2c1=S,> 100 µM
17,CSc1cnc2ccccc2c1SC1CN(Cc2ccccc2)c2ccccc2C1=O (stereo not given),> 100 µM
18,C=CC[C@]12C=C(OC)[C@@H](O)[C@](OC)(C(c3cc(OC)c4c(c3)OCO4)[C@H]1C)[C@H]2OC(C)=O (stereo not given in full),> 100 µM
19,Cn1c2ccccc2c(=NNc2cccc(C(=O)O)c2)c2ccccc21,41 µM

# System: ACHN renal
# Assay: NCI anticancer screen, dose series, 48 h
row,SMILES,TGI
1,CCOC(=O)NC(Nc1ccc([N+](=O)[O-])cc1)(C(F)(F)F)C(F)(F)F,> 100 µM
2,C[N+]12CCCCC1C(CN1C(=O)Cc3c4ccccc4c(c4ccccc34)CC1=O)CCC2 (stereo not given),> 100 µM
3,CC(=O)O[C@H]1CC[C@@]2(C)C(=CC[C@H]3[C@@H]4C[C@H](N5CCOCC5)[C@H](OC(C)=O)[C@@]4(C)CC[C@@H]32)C1,> 100 µM
4,CCC1(C)C=Cc2c(cc(O)c3c(=O)c4ccccc4n(C)c23)O1 (stereo not given),> 10 µM
5,O=[N+]([O-])/C(C(Cl)=C(Cl)Cl)=C(\N1CCCCC1)n1cncn1,32.7 µM
6,O=C1c2cccnc2-c2nccc3c2c1nc1cc(Br)ccc13,0.609 µM
7,NC(CCC(=O)NC(CSCC1C(=O)Nc2ccccc21)C(=O)NCC(=O)O)C(=O)O (stereo not given),20 µM
8,NNC(=O)CSc1nc2ccccc2c(=O)n1N,99.1 µM
9,CC(=O)NC1c2ccccc2C(C)(C)C12CCC1(CC2)OCCO1 (stereo not given),> 100 µM
10,CC1=NNC(=O)C1C(CC(=O)c1c[nH]c2ccccc12)C(=O)O (stereo not given),> 100 µM
11,CN1COCc2c1ccc1cc3ccc4c(c3nc21)COCN4S(C)(=O)=O,> 100 µM
12,Oc1cccc(-c2nc3cc(F)ccc3s2)c1,71.3 µM
13,CC(C(O)Cc1ccccc1)N(C)N=Nc1ccc([N+](=O)[O-])cc1 (stereo not given),77 µM
14,CC(C)NC(=O)OCCN=c1c2ccccc2ccc2ccccc12,> 100 µM
15,CN(C)CCOC1(Cc2ccc(F)cc2)CCC(C(C)(C)C)CC1 (stereo not given),23.5 µM and 25.7 µM
16,On1c(-c2ccccc2)nc2ccccc2c1=S,> 100 µM
17,CSc1cnc2ccccc2c1SC1CN(Cc2ccccc2)c2ccccc2C1=O (stereo not given),> 100 µM
18,C=CC[C@]12C=C(OC)[C@@H](O)[C@](OC)(C(c3cc(OC)c4c(c3)OCO4)[C@H]1C)[C@H]2OC(C)=O (stereo not given in full),> 100 µM
19,Cn1c2ccccc2c(=NNc2cccc(C(=O)O)c2)c2ccccc21,35.5 µM

# System: CCRF-CEM leukemia
# Assay: NCI anticancer screen, dose series, 48 h
row,SMILES,TGI
1,CCOC(=O)NC(Nc1ccc([N+](=O)[O-])cc1)(C(F)(F)F)C(F)(F)F,> 100 µM
2,C[N+]12CCCCC1C(CN1C(=O)Cc3c4ccccc4c(c4ccccc34)CC1=O)CCC2 (stereo not given),> 100 µM
3,CC(=O)O[C@H]1CC[C@@]2(C)C(=CC[C@H]3[C@@H]4C[C@H](N5CCOCC5)[C@H](OC(C)=O)[C@@]4(C)CC[C@@H]32)C1,> 100 µM
4,CCC1(C)C=Cc2c(cc(O)c3c(=O)c4ccccc4n(C)c23)O1 (stereo not given),> 10 µM
5,O=[N+]([O-])/C(C(Cl)=C(Cl)Cl)=C(\N1CCCCC1)n1cncn1,> 100 µM
6,O=C1c2cccnc2-c2nccc3c2c1nc1cc(Br)ccc13,0.465 µM
7,NC(CCC(=O)NC(CSCC1C(=O)Nc2ccccc21)C(=O)NCC(=O)O)C(=O)O (stereo not given),> 24.8 µM
8,NNC(=O)CSc1nc2ccccc2c(=O)n1N,> 100 µM
9,CC(=O)NC1c2ccccc2C(C)(C)C12CCC1(CC2)OCCO1 (stereo not given),> 100 µM
10,CC1=NNC(=O)C1C(CC(=O)c1c[nH]c2ccccc12)C(=O)O (stereo not given),> 100 µM
11,CN1COCc2c1ccc1cc3ccc4c(c3nc21)COCN4S(C)(=O)=O,> 100 µM
12,Oc1cccc(-c2nc3cc(F)ccc3s2)c1,73.8 µM
13,CC(C(O)Cc1ccccc1)N(C)N=Nc1ccc([N+](=O)[O-])cc1 (stereo not given),> 100 µM
14,CC(C)NC(=O)OCCN=c1c2ccccc2ccc2ccccc12,62.5 µM
15,CN(C)CCOC1(Cc2ccc(F)cc2)CCC(C(C)(C)C)CC1 (stereo not given),9.82 µM and 12.9 µM
16,On1c(-c2ccccc2)nc2ccccc2c1=S,> 100 µM
17,CSc1cnc2ccccc2c1SC1CN(Cc2ccccc2)c2ccccc2C1=O (stereo not given),> 100 µM
18,C=CC[C@]12C=C(OC)[C@@H](O)[C@](OC)(C(c3cc(OC)c4c(c3)OCO4)[C@H]1C)[C@H]2OC(C)=O (stereo not given in full),> 100 µM
19,Cn1c2ccccc2c(=NNc2cccc(C(=O)O)c2)c2ccccc21,25.6 µM

# System: BT-549 breast
# Assay: NCI anticancer screen, dose series, 48 h
row,SMILES,TGI [µM]
1,CCOC(=O)NC(Nc1ccc([N+](=O)[O-])cc1)(C(F)(F)F)C(F)(F)F,> 100
2,C[N+]12CCCCC1C(CN1C(=O)Cc3c4ccccc4c(c4ccccc34)CC1=O)CCC2 (stereo not given),> 100
3,CC(=O)O[C@H]1CC[C@@]2(C)C(=CC[C@H]3[C@@H]4C[C@H](N5CCOCC5)[C@H](OC(C)=O)[C@@]4(C)CC[C@@H]32)C1,> 100
4,CCC1(C)C=Cc2c(cc(O)c3c(=O)c4ccccc4n(C)c23)O1 (stereo not given),> 10
5,O=[N+]([O-])/C(C(Cl)=C(Cl)Cl)=C(\N1CCCCC1)n1cncn1,31.6
